Assay results taken from US11198695B2, “Fused ring derivative having MGAT-2 inhibitory activity” (Shionogi & Co., Ltd., priority 2017, dated 2021).

biological target: recombinant human MGAT2 (Homo sapiens (Human), UniProt Q3SYC2); experiment: Measurement of human MGAT2 inhibitory activity; format: biochemical; conditions: read-out: IC50 (concentration exhibiting 50% enzyme inhibition), Table 52
How it was run: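 RapidFire ESI-MS read-out of the diolein/diolein-d5 peak ratio gave % inhibition, with no-enzyme and full-enzyme wells as 100% and 0%. Reactions ran 1 h at room temperature at pH 7.4 (phosphate, 2 mmol/L DTT), using Flag-tagged human MGAT2 membranes from Sf9 cells and a substrate solution of 30 μmol/L 2-oleoylglycerol and 10 μmol/L oleoyl-CoA.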

Chain of recombinant human MGAT2 (Q3SYC2 whole entry): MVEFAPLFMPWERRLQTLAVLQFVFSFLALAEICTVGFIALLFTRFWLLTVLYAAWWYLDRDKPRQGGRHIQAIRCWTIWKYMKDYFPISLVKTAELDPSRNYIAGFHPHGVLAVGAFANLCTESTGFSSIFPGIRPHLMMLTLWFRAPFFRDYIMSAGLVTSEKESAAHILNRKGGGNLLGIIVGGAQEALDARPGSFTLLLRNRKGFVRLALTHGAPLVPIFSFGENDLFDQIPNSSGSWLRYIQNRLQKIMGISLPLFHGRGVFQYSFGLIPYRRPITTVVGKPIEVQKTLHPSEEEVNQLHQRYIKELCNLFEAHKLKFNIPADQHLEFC

In order of rising IC50:
1. CS(=O)(=O)CC(=O)Nc1c2c(nn1-c1ccc(F)cn1)C[C@@]1(CCc3cc(OCC(F)(F)F)ccc31)NC2=O [Compound I-211]  2.1 nM
2. CS(=O)(=O)CC(=O)Nc1c2c(nn1CCCC(F)(F)F)C[C@]1(CCc3cc(OCCCC(F)(F)F)ccc31)NC2=O [Compound I-206]  2.4 nM
3. CS(=O)(=O)CC(=O)Nc1c2c(nn1-c1ccc(F)cn1)C[C@]1(CCc3cc(OCC(F)(F)F)ccc31)NC2=O [Compound I-203]  2.6 nM
4. CS(=O)(=O)CC(=O)Nc1c2c(nn1Cc1nc(C(F)(F)F)cs1)C[C@]1(CCc3cc(OCCCC(F)(F)F)ccc31)NC2=O [Compound I-209]  3.2 nM
5. CS(=O)(=O)CC(=O)Nc1c2c(nn1CCCC(F)(F)F)C[C@]1(CCc3cc(OCC(F)(F)F)ccc31)NC2=O [Compound I-193]  6.1 nM
6. CS(=O)(=O)CC(=O)Nc1c2c(nn1CCC1CC1)C[C@]1(CCc3cc(N4CC(F)(F)C4)cc(F)c31)NC2=O [Compound I-202]  6.2 nM
7. CS(=O)(=O)CC(=O)Nc1c2c(nn1Cc1nc(C(F)(F)F)cs1)C[C@]1(CCc3cc(OCC(F)(F)F)ccc31)NC2=O [Compound I-192]  6.5 nM
8. CS(=O)(=O)CC(=O)Nc1c2c(nn1CCC1CC1)C[C@]1(CCc3cc(N4CC(F)(F)C4)ccc31)NC2=O [Compound I-204]  11.3 nM
9. CS(=O)(=O)CC(=O)Nc1c2c(nn1CCCC#N)C[C@]1(CCc3cc(OCCCC(F)(F)F)ccc31)NC2=O [Compound I-207]  17.5 nM
10. CC(C)(O)c1ccc(-n2nc3c(c2NC(=O)CS(C)(=O)=O)C(=O)N[C@@]2(CCc4cc(OCCCC(F)(F)F)ccc42)C3)cc1 [Compound I-197]  24 nM
11. O=C(Nc1c2c(nn1CCC1CC1)C[C@]1(CCc3cc(OCC(F)(F)F)ccc31)NC2=O)c1cncnc1 [Compound I-216]  35 nM
12. CS(=O)(=O)CC(=O)NCc1c2c(nn1CCC1CC1)C[C@]1(CCc3cc(OCC(F)(F)F)ccc31)NC2=O [Compound I-213]  43 nM
13. O=C(Nc1c2c(nn1CCC1CC1)C[C@]1(CCc3cc(OCC(F)(F)F)ccc31)NC2=O)c1ccoc1 [Compound I-218]  48 nM
14. CS(=O)(=O)CC(=O)Nc1c2c(nn1CCC1CC1)C[C@]1(CCc3cc(NC(=O)CC(F)(F)F)ccc31)NC2=O [Compound I-198]  67 nM
15. O=C(Nc1c2c(nn1CCC1CC1)C[C@]1(CCc3cc(OCC(F)(F)F)ccc31)NC2=O)c1cnccn1 [Compound I-217]  89.5 nM
16. O=C(Nc1c2c(nn1CCC1CC1)C[C@]1(CCc3cc(OCC(F)(F)F)ccc31)NC2=O)c1csnn1 [Compound I-219]  110 nM
17. CS(=O)(=O)CC(=O)Nc1nn(CCCC(F)(F)F)c2c1C(=O)N[C@@]1(CCc3cc(OCCCC(F)(F)F)ccc31)C2 [Compound I-208]  250 nM
18. CS(=O)(=O)CC(=O)Nc1c2c(nn1CC1CCOCC1)C[C@]1(CCc3cc(OCCCC(F)(F)F)ccc31)NC2=O [Compound I-205]  270 nM
19. O=C(Nc1c2c(nn1CCC1CC1)C[C@]1(CCc3cc(OCC(F)(F)F)ccc31)NC2=O)c1ccncn1 [Compound I-199]  400 nM
20. O=C(Nc1c2c(nn1CCC1CC1)C[C@]1(CCc3cc(OCC(F)(F)F)ccc31)NC2=O)c1ncccn1 [Compound I-215]  420 nM
21. O=C1N[C@@]2(CCc3cc(OCC(F)(F)F)ccc32)Cc2nn(CCC3CC3)c(CNS(=O)(=O)C3CC3)c21 [Compound I-195]  450 nM
22. CCS(=O)(=O)NCc1c2c(nn1CCC1CC1)C[C@]1(CCc3cc(OCC(F)(F)F)ccc31)NC2=O [Compound I-194]  460 nM
23. CCCC(C)n1nc2c(c1NC(=O)CS(C)(=O)=O)C(=O)N[C@@]1(CCc3cc(OCC(F)(F)F)ccc31)C2 (stereo partly shown) [Compound I-214]  460 nM
24. CS(=O)(=O)CC(=O)Nc1nn(Cc2nc(C(F)(F)F)cs2)c2c1C(=O)N[C@@]1(CCc3cc(OCCCC(F)(F)F)ccc31)C2 [Compound I-210]  550 nM
25. O=C1N[C@@]2(CCc3cc(OCC(F)(F)F)ccc32)Cc2nn(CCC3CC3)c(C(=O)Nc3ccccc3)c21 [Compound I-196]  1000 nM
